Values quoted from earlier work as cited in US8252778B2, “Highly fluorinated oils and surfactants and methods of making and using same” (University of Utah Research Foundation, priority 2006, dated 2012).

Biological target: sstr2 (Homo sapiens, UniProt P30874)
Sequence (P30874 whole entry, species assumed): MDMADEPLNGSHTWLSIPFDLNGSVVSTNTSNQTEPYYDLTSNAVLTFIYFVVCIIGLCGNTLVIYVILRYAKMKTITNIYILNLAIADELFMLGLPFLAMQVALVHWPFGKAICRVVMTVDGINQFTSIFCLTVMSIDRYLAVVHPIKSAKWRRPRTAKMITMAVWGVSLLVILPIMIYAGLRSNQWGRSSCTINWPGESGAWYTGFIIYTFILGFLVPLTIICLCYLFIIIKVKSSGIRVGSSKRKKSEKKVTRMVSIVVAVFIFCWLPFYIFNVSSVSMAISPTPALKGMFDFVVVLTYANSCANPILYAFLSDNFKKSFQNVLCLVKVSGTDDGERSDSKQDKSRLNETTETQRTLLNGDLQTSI

For `C[C@@H](O)[C@@H]1NC(=O)[C@H](CCCCN)NC(=O)[C@@H](Cc2c[nH]c3ccccc23)NC(=O)[C@H](Cc2ccccc2)NC(=O)[C@@H](NC(=O)[C@H](N)Cc2ccccc2)CSSC[C@@H](C(=O)N[C@H](CO)[C@@H](C)O)NC1=O` [octreotide, DPhe1-c[Cys2-Phe3-DTrp-4-Lys5-Thr6-Cys7]-Thr8-NH2], the “affinity and specificity for sstr2” value is given as “high affinity and specificity”.
